# Measurements taken from patent US20120028985A1, “COMBINATIONAL THERAPY FOR TREATING AUTOIMMUNE DISEASE” (4SC AG, priority 2008, published 2012).
# Entries after “also recorded” stand apart in the source; their conditions may differ. Marks after values point to notes of the source that are not given here.
# What was measured:
# DBA1/J mice = assay: Liver histology in collagen induced arthritis mice; assay type: in vivo; details: individual mouse; diseased mice; po, MTX 2.5 mg/kg, Formula (II) 50 mg/kg
# From the text: Dosing is started, PO (per oral) once daily for 14 days.
# Beagle dogs [1] = assay: 13-week repeat dose toxicity in Beagle dogs, combination with methotrexate: clinical biochemistry (ALAT, ASAT); assay type: in vivo; details: for ALAT, change as compared to the control group 1 / ASAT, change as compared to the control group 1: 25 mg Formula (II)/kg/day and/or 10/2.5 mg MTX/kg/week, p.o.
# Procedure: For laboratory examinations blood samples were taken from the vena cephalica or vena saphena magna from animals fasted overnight. Serum samples were collected into tubes for biochemical tests. Clinical biochemistry parameters from venous blood were determined at the times listed below:
# Prior to study start: all animals of a pool of 52 dogs […]
# At the end of the recovery period: all 8 recovery animals included in this study
# Clinical biochemistry parameters (e.g. bile acids, alanine aminotransferase=ALAT, alkaline phosphatise=aP, aspartate aminotransferase=ASAT, gamma-glutamyl-transferase=Gamma-GT, glutamate dehydrogenase=GLDH, creatine kinase=CK) were measured using KONELAB 30i instrument (Thermo Fisher Scientific, 63303 Dreieich, Germany) as U/L (unit/liter) serum.
# Beagle dogs [2] = system: Beagle dogs
# From the text: The animals were randomly allocated to five test groups employing a pseudo-random body weight stratification procedure that yielded groups with approximately equal mean body weights. […] A special focus of the study was to study the influence of the combination treatment on liver toxicity.
# [3] = Toxicokinetics of formula (II) and methotrexate after individual and concomitant administration to Beagle dogs; assay type: in vivo; details: Beagle, dog, plasma, po, mean
# [4] = female, 2.5 mg/kg, Group 3, methotrexate alone 2.5 mg/kg (reduced from 10), week 13, female Beagle dogs
# [5] = female, 2.5 mg/kg, Group 4 (+10SC, in combination with 10 mg/kg formula (II)), methotrexate 2.5 mg/kg (reduced from 10), week 13, female Beagle dogs
# [6] = female, 2.5 mg/kg, Group 5 (+25SC, in combination with 25 mg/kg formula (II)), methotrexate 2.5 mg/kg (reduced from 10), week 13, female Beagle dogs
# [7] = female, 10 mg/kg, Group 3, methotrexate 10 mg/kg alone, day 1, female Beagle dogs
# [8] = female, 10 mg/kg, Group 4 (+10SC, in combination with 10 mg/kg formula (II)), methotrexate 10 mg/kg, day 1, female Beagle dogs
# [9] = female, 10 mg/kg, Group 5 (+25SC, in combination with 25 mg/kg formula (II)), methotrexate 10 mg/kg, day 1, female Beagle dogs
# [10] = male, 2.5 mg/kg, Group 3, methotrexate alone 2.5 mg/kg (reduced from 10), week 13, male Beagle dogs
# [11] = male, 2.5 mg/kg, Group 4 (+10SC, in combination with 10 mg/kg formula (II)), methotrexate 2.5 mg/kg (reduced from 10), week 13, male Beagle dogs
# [12] = male, 2.5 mg/kg, Group 5 (+25SC, in combination with 25 mg/kg formula (II)), methotrexate 2.5 mg/kg (reduced from 10), week 13, male Beagle dogs
# [13] = male, 10 mg/kg, Group 3, methotrexate 10 mg/kg alone, day 1, male Beagle dogs
# [14] = male, 10 mg/kg, Group 4 (+10SC, in combination with 10 mg/kg formula (II)), methotrexate 10 mg/kg, day 1, male Beagle dogs
# [15] = male, 10 mg/kg, Group 5 (+25SC, in combination with 25 mg/kg formula (II)), methotrexate 10 mg/kg, day 1, male Beagle dogs
compound,measurement,setting,value
"CN(Cc1cnc2nc(N)nc(N)c2n1)c1ccc(C(=O)N[C@@H](CCC(=O)O)C(=O)O)cc1 [MTX, methotrexate, reference compound]","Liver Histology, Observations",DBA1/J mice,"Minimal glycogen depletion, hepatocyte; also recorded: Mild glycogen depletion, hepatocyte; also recorded: Normal; also recorded: Minimal multifocal subacute inflammation"
same,Changes in the biochemical parameters,"Beagle dogs [1]; Beagle dogs, 13 weeks oral, serum","pronounced and statistically significant (at p≦0.01) changes in the biochemical parameters of ALAT, ASAT, CK, GLDH as well as bile acids"
same,"ALAT, change as compared to the control group 1","Beagle dogs [1]; Test day 37, females",+190%
same,"ASAT, change as compared to the control group 1","Beagle dogs [1]; Test day 37, females",+47** %
same,"ALAT, change as compared to the control group 1","Beagle dogs [1]; Test day 37, males",none
same,"ASAT, change as compared to the control group 1","Beagle dogs [1]; Test day 37, males",none
same,"ALAT, change as compared to the control group 1","Beagle dogs [1]; Test day 93, females",+567%
same,"ASAT, change as compared to the control group 1","Beagle dogs [1]; Test day 93, females",+34** %
same,"ALAT, change as compared to the control group 1","Beagle dogs [1]; Test day 93, males",+386%
same,"ASAT, change as compared to the control group 1","Beagle dogs [1]; Test day 93, males",+55** %
same,Premature death,"Beagle dogs [2]; Beagle dogs, 10 mg MTX/kg body weight/week, oral",found dead in the morning of test day 20
same,Enteritis in the gastro-intestinal mucosa,"Beagle dogs [2]; dog, in vivo, po",most pronounced
same,AUC(0-inf),[3]; [4],2200 ng·h/mL
same,Cmax,[3]; [4],500 ng/mL
same,half-life,[3]; [4],2.3 h
same,AUC(0-inf),[3]; [5],1900 ng·h/mL
same,Cmax,[3]; [5],400 ng/mL
same,half-life,[3]; [5],2.6 h
same,AUC(0-inf),[3]; [6],1400 ng·h/mL
same,Cmax,[3]; [6],200 ng/mL
same,half-life,[3]; [6],2.7 h
same,AUC(0-inf),[3]; [7],5300 ng·h/mL
same,Cmax,[3]; [7],1100 ng/mL
same,half-life,[3]; [7],2.4 h
same,AUC(0-inf),[3]; [8],7500 ng·h/mL
same,Cmax,[3]; [8],1700 ng/mL
same,AUC(0-inf),[3]; [9],5000 ng·h/mL
same,Cmax,[3]; [9],1200 ng/mL
same,half-life,[3]; [9],2 h
same,AUC(0-inf),[3]; [10],3000 ng·h/mL
same,Cmax,[3]; [10],700 ng/mL
same,half-life,[3]; [10],2.6 h
same,AUC(0-inf),[3]; [11],2000 ng·h/mL
same,Cmax,[3]; [11],400 ng/mL
same,half-life,[3]; [11],2 h
same,AUC(0-inf),[3]; [12],2500 ng·h/mL
same,Cmax,[3]; [12],600 ng/mL
same,half-life,[3]; [12],2.1 h
same,AUC(0-inf),[3]; [13],6400 ng·h/mL
same,Cmax,[3]; [13],1800 ng/mL
same,half-life,[3]; [13],1.6 h
same,AUC(0-inf),[3]; [14],6600 ng·h/mL
same,Cmax,[3]; [14],1700 ng/mL
same,half-life,[3]; [14],1.6 h
same,AUC(0-inf),[3]; [15],5900 ng·h/mL
same,Cmax,[3]; [15],1200 ng/mL
same,half-life,[3]; [15],2.2 h
